{
  "source": "patent US20180327723A1",
  "about": "“Production of Glycosylated Nootkatol in Recombinant Hosts” (Evolva SA, priority 2015, published 2018)",
  "key": {"[1]": {"experiment": "In vitro de-glycosylation of nootkatol-glucoside by glycosidase enzymes, LC-MS", "format": "biochemical", "conditions": "water control, Delft fermentation medium, 2 hours", "procedure": "Identical samples of 990 μl of Delft fermentation medium further comprising 0.1 mg nootkatol-glucoside (Nootkatol-Glc) were each treated with 10 μl of 12 exemplary glycosidase enzymes (listed in Table 3 below) (thus, 1% v/v) for 2 hours. After 2 hours, samples of the reaction mixture were taken, and the de-glycosylation reaction was terminated by addition of an equal volume of ethanol followed by freezing.\nThe resulting digested samples were analyzed by LC-MS on a BEH C18-column (100 mm×2.1 mm, 5 μm). Mobile phase A was 0.1% formic acid in water, and mobile phase B was 0.1% formic acid in acetonitrile. B concentration gradient was 0-1 min, 1%; 1-5 min, 100%; 5-7 min, 100%; 7-7.1 min, 1%; 7.1-9 min, 1%. The injection volume was 5 μL. Mass spectrometry analysis was carried out on an SQD1 detector (3.4 KV capillary, 37 V cone, 3 V extractor, 0.1 V RF lens) at a source temperature of 150° C. and desolvation temperature of 250° C., with full scan ESI+/−(100-900 amu scan range) and selective ion recording."}, "[2]": {"system": "wild-type MATa strain ATCC 28383", "experiment": "Growth-inhibitory effect on yeast, cell viability by plating (CFU)", "format": "cell-based, S. cerevisiae", "conditions": "0.5 g/L, 5 h of exposure, plated on YPD", "procedure": "A 20 mL seed culture of wild-type MATa strain ATCC 28383 was grown in SD-THUL medium (0.67 Bacto yeast nitrogen base without amino acids, 2% glucose, 0.14% yeast synthetic drop-out medium without uracil, tryptophan, histidine and leucine). The culture was grown for 24 h, and 2.5 mL of the culture was used to inoculate 7 equal batches of 50 mL fermentation medium (2% (NH4)2SO4, 2% KH2PO4, 0.1% NaCl, 0.6% MgSO4.7H2O, 0.4% yeast extract, 1 mL mineral solution [FeSO4.7H2O 0.028%, ZnSO4.7H2O 0.029%, CuSO4.5H2O 0.008%, Na2MoO4.2H2O 0.024%, CoCl2.6H2O 0.024%, MnSO4.H2O 0.017%, HCl 1 mL], 0.5 mL 50% glucose, 1.5 mL vitamin solution [biotin 0.001%, Ca-pantothenate 0.012%, inositol 0.06%, pyridoxine-HCl 0.012%, thiamine-HCl 0.012%], and 0.5 mL 10% CaCl2) in 250 mL baffled Ehrlenmeyer flasks.\nIn 6 flasks, nootkatol or glycosylated nootkatol (nootkatol+1 glucose) were added in final concentrations of 0.06, 0.125, and 0.5 g/L. The 7th flask was used as a control and was not treated with nootkatol or glycosylated nootkatol. The cultures were grown at 28° C. and 170 rpm, and the cell viability was measured after 5 h of exposure by plating 100 μL of 1/1000 dilution of cell culture on yeast extract peptone dextrose (YPD) plates."}},
  "data": [
    {"smiles": "C=C(C)C1CCC2=CC(OC3OC(CO)C(O)C(O)C3O)CC(C)C2(C)C1", "note": "(centres unmarked) [glycosylated nootkatol]", "values": [
      {"measurement": "spontaneous de-glycosylation", "setting": "[1]", "value": "weak spontaneous de-glycosylation"},
      {"measurement": "toxicity (cell viability)", "setting": "[2]", "value": "no toxicity was observed"}
    ]}
  ]
}
